From patent publication US9181307B2, “Influenza A 2009 pandemic H1N1 polypeptide fragments comprising endonuclease activity and their use” (priority 2010, dated 2015) come the findings set out here.

In this test the test system is Influenza A 2009 pandemic H1N1 PA subunit polypeptide fragment or variant thereof. As to the kind of experiment: Inhibition of endonucleolytic activity of PA subunit polypeptide fragment. Type of test: biochemical, Influenza A 2009 pandemic H1N1 virus.
On to `O=C(O)/C(O)=C/C(=O)C1(Cc2ccc(Cl)cc2)CCN(CC2CCCCC2)CC1` [EMBL-R05-2, 4-[4-[(4-chlorophenyl)methyl]-1-(cyclohexylmethyl)-4-piperidinyl]-2-hydroxy-4-oxo-2-butenoic acid], for which the “ability to modulate, i.e. to inhibit, the endonucleolytic activity” value is given as “inhibit”.
Under `O=C(O[C@@H]1Cc2c(O)cc(O)cc2O[C@@H]1c1cc(O)c(O)c(O)c1)c1cc(O)c(O)c(O)c1` [EGCG, [(2R,3R)-5,7-dihydroxy-2-(3,4,5-trihydroxyphenyl)chroman-3-yl]3,4,5-trihydroxybenzoate] stands “inhibit”; under `O=C(O)/C(O)=C/C(=O)C1(Cc2ccc(Cl)cc2)CCCN(Cc2ccccc2)C1` (stereo not drawn) [EMBL-R05-3, 4-[3-[(4-chlorophenyl)methyl]-1-(phenylmethyl)-3-piperidinyl]-2-hydroxy-4-oxo-2-butenoic acid], “inhibit”.
